Source: patent US8173680B2, “Cannabinoid receptor modulators” (7TM Pharma A/S, priority 2007, dated 2012)

The compounds below were run against T1, human CB1 receptor (Homo sapiens, UniProt P21554) (assay: Cannabinoid Receptor-1 functional assay: inhibition of CP55940-induced [35S]GTPγS binding to membranes from CHO-K1 cells expressing the human CB1 receptor). Settings: antagonizing CB1 receptor agonist CP55940 (3 nM), [35S]GTPγS SPA, read-out: Antagonism IC50.
T1 construct: expressed in transfected cells; membrane preparation
Type: biochemical
From the text: Transfection and Cell Culture—The cDNA encoding the human CB1 (Cannabinoid Receptor-1) receptor (GenBank accession number NM_016083) was cloned from a human adipose tissue cDNA library and cloned into the eukaryotic expression vector pcDNA3.1 (Invitrogen).
Chinese Hamster Ovary cells (CHO-K1) stably expressing recombinant human CB1 receptors were generated by transfecting the plasmid containing the coding sequence of the human CB1 receptor in CHO-K1 cells, using lipofectamine, according to the manufacturers instructions. Resistant clones were selected in the presence of 600 μg/ml G418 (Life technology). Stably transfected CHO-K1 cells were maintained in Ham's F-12 culture medium (Invitrogen), supplemented with 10% fetal calf serum (Invitrogen), 100 U/ml penicillin, 100 μg/ml streptomycin (Life Technology), and 600 μg/ml G418.
Cannabinoid Receptor-1 Functional Assay.
Functional activities of the above examples of compounds of the invention were assessed in vitro by measuring their ability to inhibit CP55940-induced [^35S]GTPγS binding to membranes prepared from CHO-K1 cells expressing the human CB1 receptor (described in Transfection and Cell Culture). CP55940 is a well known non-selective CB1 and CB2 receptor agonist (e.g Felder et al., 1995, Molecular Pharmacology, (48) 443-50). Membranes were prepared by a standard procedure. Briefly, cells were harvested using 10 mM EDTA and collected by centrifugation. Pelleted cells were homogenized in ice-cold 20 mM Hepes (pH 7.4), 10 mM EDTA and protease inhibitors (Complete protease inhibitor cocktail tablet, Roche) using an Ultra Turrax Homogenizer. The homogenate was centrifuged at 14 000 rpm for 45 min. at 4° C. The resultant pellet was resuspended in the same buffer but with only 0.1 mM EDTA and was again centrifuged at 14 000 rpm for 45 min. at 4° C. The resulting pellet (membranes) was resuspended in 20 mM Hepes (pH 7.4), 0.1 mM EDTA, 2 mM MgCl2 and protease inhibitors and protein concentration was determined by Micro BCA Protein Assay Reagent Kit (Pierce Biotechnology) according to the manufacturers instructions. The [^35S]GTPγS SPA (Scintillation Proximity Assay) binding assay was performed by incubating 5 μg/well membranes prepared from CHO-K1 cells expressing the human CB1 receptor with 1 nM [^35S]GTPγS (Perkin Elmer—NEG 030H) in the presence of 3 nM of CP55940 and various concentrations of the test compounds at room temperature for 1 hr in 96-well microtiter plates. 0.4 mg/well SPA beads (PVT-WGA; RPNQ0001 Amersham Pharmacia Biotech) were then added and the incubation continued for further 30 min. on an orbital shaker. The assay buffer contained 50 mM HEPES (pH 7.5), 50 mM NaCl, 2.5 mM MgCl2, 0.1% BSA, 1 μM GDP and 100 μg/ml Saponin. Microtiter plates were centrifuged at 1500 rpm for 5 min. and radioactivity was read immediately using a Topcounter (PerkinElmer Life Sciences). Data were analyzed and IC50 values determined by non-linear regression analysis using the Prism software (GraphPad Software, San Diego).

T1 sequence (P21554 whole entry): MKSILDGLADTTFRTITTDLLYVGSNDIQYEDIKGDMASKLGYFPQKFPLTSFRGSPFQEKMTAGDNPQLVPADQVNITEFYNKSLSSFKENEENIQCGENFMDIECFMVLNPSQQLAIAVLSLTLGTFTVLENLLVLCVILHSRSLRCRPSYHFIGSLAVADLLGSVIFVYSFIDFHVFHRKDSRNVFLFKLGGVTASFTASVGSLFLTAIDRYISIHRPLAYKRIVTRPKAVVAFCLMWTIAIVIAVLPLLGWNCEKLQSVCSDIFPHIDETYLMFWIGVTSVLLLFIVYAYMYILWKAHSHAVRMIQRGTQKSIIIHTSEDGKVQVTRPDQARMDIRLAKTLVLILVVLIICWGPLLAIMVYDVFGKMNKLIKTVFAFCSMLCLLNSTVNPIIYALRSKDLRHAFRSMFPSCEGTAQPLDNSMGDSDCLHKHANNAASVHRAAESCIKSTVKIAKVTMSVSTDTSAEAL

Row | IC50 [nM] | Compound
1 | < 500 | N#CNC(=O)Cc1c(C(=O)N2CCC(Oc3cc(F)cc(F)c3)CC2)nn(-c2ccccc2Cl)c1-c1ccc(Cl)cc1 [Compound 4.03, {1-(2-Chloro-phenyl)-5-(4-chloro-phenyl)-3-[4-(3,5-difluoro-phenoxy)-piperidine-1-carbonyl]-1H-pyrazol-4-yl}-N-cyano-acetamide]
2 | < 500 | C[C@H](c1ccc(C(F)(F)F)cc1)N(C)C(=O)c1nn(-c2ccccc2Cl)c(-c2ccc(Cl)cc2)c1CC(=O)NC#N [Compound 4.02, (1-(2-Chloro-phenyl)-5-(4-chloro-phenyl)-3-{methyl-[(R)-1-(4-trifluoromethyl-phenyl)-ethyl]-carbamoyl}-1H-pyrazol-4-yl)-N-cyano-acetamide]
3 | < 500 | N#CNC(=O)Cc1c(C(=O)N2CCC(c3ccccc3F)CC2)nn(-c2ccccc2Cl)c1-c1ccc(Cl)cc1 [Compound 4.01, 2-{1-(2-Chloro-phenyl)-5-(4-chloro-phenyl)-3-[4-(2-fluoro-phenyl)-piperidine-1-carbonyl]-1H-pyrazol-4-yl}-N-cyano-acetamide]
4 | < 500 | O=C1NC(=O)C(Cc2c(C(=O)N3CCC(c4ccccc4F)CC3)nn(-c3ccccc3Cl)c2-c2ccc(Cl)cc2)N1 (centres unmarked) [Compound 6.01, 5-{1-(2-Chloro-phenyl)-5-(4-chloro-phenyl)-3-[4-(2-fluoro-phenyl)-piperidine-1-carbonyl]-1H-pyrazol-4-ylmethyl}-imidazolidine-2,4-dione]
5 | < 500 | C[C@@H](NC(=O)c1nn(-c2ccccc2Cl)c(-c2ccc(Cl)cc2)c1CC1NC(=O)NC1=O)c1ccc(C(F)(F)F)cc1 (some centres unmarked) [Compound 6.02]
6 | < 500 | C[C@H](c1ccc(C(F)(F)F)cc1)N(C)C(=O)c1nn(-c2ccccc2Cl)c(-c2ccc(Cl)cc2)c1C1CC(=O)NC1=O (stereo partly drawn) [Compound 5.01, 1-(2-Chloro-phenyl)-5-(4-chloro-phenyl)-4-(2,5-dioxo-pyrrolidin-3-yl)-1H-pyrazole-3-carboxylic acid methyl-[(R)-1-(4-trifluoromethyl-phenyl)-ethyl]-amide]

Further lines, the compound ahead of its results:

Row | Compound | IC50 [nM]
7 | CS(=O)(=O)NC(=O)Cc1c(C(=O)N2CCC(c3ccccc3F)CC2)nn(-c2ccccc2Cl)c1-c1ccc(Cl)cc1 [Compound 3.01, N-(2-{1-(2-Chloro-phenyl)-5-(4-chloro-phenyl)-3-[4-(2-fluoro-phenyl)-piperidine-1-carbonyl]-1H-pyrazol-4-yl}-acetyl)-methanesulfonamide] | < 500
8 | C[C@@H](NC(=O)c1nn(-c2ccccc2Cl)c(-c2ccc(Cl)cc2)c1Cc1noc(=O)[nH]1)c1ccc(C(F)(F)F)cc1 [Compound 1.01, 5-(4-Chloro-phenyl)-1-(2-chloro-phenyl)-4-(5-oxo-4,5-dihydro-[1,2,4]oxadiazol-3-ylmethyl)-1H-pyrazole-3-carboxylic acid [(R)-1-(4-trifluoromethyl-phenyl)-ethyl]-amide] | < 500
9 | O=C(c1nn(-c2ccccc2Cl)c(-c2ccc(Cl)cc2)c1Cc1n[nH]c(=O)o1)N1CCC(c2ccccc2F)CC1 [Compound 2.01, 5-{5-(4-Chloro-phenyl)-1-(2-chloro-phenyl)-3-[4-(2-fluoro-phenyl)-piperidine-1-carbonyl]-1H-pyrazol-4-ylmethyl}-3H-[1,3,4]oxadiazol-2-one] | < 500
10 | 1-(2-Chloro-phenyl)-5-(4-chloro-phenyl)-4-(5-oxo-4,5-dihydro-[1,3,4]oxadiazol-2-ylmethyl)-1H-pyrazole-3-carboxylic acid ((R)-1-p-tolyl-ethyl)-amide [Compound 2.02] | < 500
11 | C[C@H](c1ccc(C(F)(F)F)cc1)N(C)C(=O)c1nn(-c2ccccc2Cl)c(-c2ccc(Cl)cc2)c1CC(=O)NS(C)(=O)=O [Compound 3.02, 1-(2-Chloro-phenyl)-5-(4-chloro-phenyl)-4-(2-methanesulfonylamino-2-oxo-ethyl)-1H-pyrazole-3-carboxylic acid methyl-[(R)-1-(4-trifluoromethyl-phenyl)-ethyl]-amide] | < 500
